Laboratory results: patent publication US5374733A, “Sweetening agent derived from L-aspartic or L-glutamic acid” (priority 1989, dated 1994)
Read-outs that look alike come from different tables or passages of the source. Peptide text beside a SMILES is read from it.

What was measured:
[1] = Stability: accelerated ageing in aqueous solution at pH 3 and 70° C., remaining product by HPLC (half-life); assay type: physicochemical; details: pH 3, 70° C.
Protocol: The stability of the compounds of the invention, in particular those containing the L-glutamyl residue, is very high and can in certain cases be about three hundred times greater than that of the compounds of the prior art.
The stability of the compounds of the prior art and those of the invention is measured using high performance liquid chromatography to determine the amount of product remaining after accelerated ageing in an acid medium (phosphate buffer at pH 3) and at high temperature (70° C.). Under these experimental conditions, measurement of the half-life (time corresponding to 50% degradation) makes it possible to evaluate the potential stability of the compounds tested in this way. A compound of low stability will have a very short half-life of only a few hours, whereas a very stable compound will have a half-life of several tens of days, as is the case, for example, of compounds (5) and (6) of the invention, which have a half-life of about 60 days (FIG. 1).

[2] = cited from earlier work; for SP: Table 2, EP-A-0.338.946, sucrose concentration not stated
[3] = Sweetening potency: taste comparison by a team of eight experienced people with a sucrose reference solution; details: weight basis; for SP (relative sweetening potency): Table 3, compared with a 2% aqueous solution of sucrose
Protocol: The sweetening potency of the compounds described in the Examples was evaluated by a team of eight experienced people. This is done by comparing the taste of the compounds, in aqueous solution at variable concentrations, with a 2%, 5 % or 10 % reference solution of sucrose. The sweetening potency of the test compound compared with sucrose then corresponds to the weight ratio between the compound and sucrose for equal sweetening intensity, i.e. when the sweet tastes of the solution of the test compound and the reference solution of sucrose are considered, by a majority of people, to have the same sweetening intensity.
Summary Table 3 below gives, by way of examples, a list of a few compounds obtained by experimental protocols similar to those described above, which those skilled in the art will easily find, together with their relative sweetening potency (SP), evaluated on a weight basis, compared with a 2% aqueous solution of sucrose. When the groups R1, R2 and R3 are different, the configuration of the asymmetric carbon to which they are bonded (carbon marked with an asterisk) is designated according to the conventional rules of stereochemistry using the R/S system: R, S or, when both configurations coexist in the same compound, RS.

[4] = phosphate buffer, pH 3, accelerated ageing, read-out: half-life (converted)
[5] = prior art and aspartame, sucrose concentration not given
[6] = phosphate buffer, pH 3, accelerated ageing, prior art compounds, read-out: half-life (converted)

| Compound | SP [2] | SP (relative sweetening potency) [3] | further results |
| --- | --- | --- | --- |
| CCCC[C@H](C)C(=O)N[C@@H](CCC(=O)O)C(=O)Nc1ccc(C#N)nc1 [(5)] |  |  | stability (in words) ([1]; accelerated ageing): high stability; half-life [1, 4]: ~60 days |
| CCC(CC)CN[C@@H](CC(=O)O)C(=O)Nc1ccc(C#N)cc1 [(CH3 CH2)2 CHCH2/1/4-CN--C6 H4] | 200 |  |  |
| CC(C)CCN[C@@H](CC(=O)O)C(=O)Nc1ccc(C#N)cc1 [(CH3)2 CHCH2 CH2/1/4-CN--C6 H4] | 100 |  |  |
| CC(C)CCN[C@@H](CCC(=O)O)C(=O)Nc1ccc(C#N)cc1 [(CH3)2 CHCH2 CH2/2/4-CN--C6 H4] | 800 |  |  |
| N#Cc1ccc(NC(=O)[C@H](CCC(=O)O)NCCCc2ccccc2)cc1 [C6 H5 CH2 CH2 CH2/2/4-CN--C6 H4] | 800 |  |  |
| N#Cc1ccc(NC(=O)[C@H](CC(=O)O)NCCc2ccccc2)cc1 [C6 H5 CH2 CH2/1/4-CN--C6 H4] | 300 |  |  |
| N#Cc1ccc(NC(=O)[C@H](CCC(=O)O)NCCc2ccccc2)cc1 [C6 H5 CH2 CH2/2/4-CN--C6 H4] | 300 |  |  |
| N#Cc1ccc(NC(=O)[C@H](CCC(=O)O)NCc2ccccc2)cc1 [C6 H5 CH2/2/4-CN--C6 H4] | 20 |  |  |
| CC(CCN[C@@H](CCC(=O)O)C(=O)Nc1ccc(C#N)cc1)c1ccccc1 (stereo partly shown) [C6 H5 CH(CH3)CH2 CH2/2/4-CN--C6 H4] | 400 |  |  |
| N#Cc1ccc(NC(=O)[C@H](CCC(=O)O)NCC=Cc2ccccc2)cc1 [C6 H5 CH=CHCH2/2/4-CN--C6 H4] | 2000 |  |  |
| CCCC(C)CN[C@@H](CCC(=O)O)C(=O)Nc1ccc(C#N)cc1 (stereo partly shown) [CH3 (CH2)2 CH(CH3)CH2/2/4-CN--C6 H4] | 5000 |  |  |
| CCCC=CCN[C@@H](CCC(=O)O)C(=O)Nc1ccc(C#N)cc1 [CH3 (CH2)2 CH=CHCH2/2/4-CN--C6 H4] | 3000 |  |  |
| CCCCCN[C@@H](CC(=O)O)C(=O)Nc1ccc(C#N)cc1 [CH3 (CH2)3 CH2/1/4-CN--C6 H4] | 300 |  |  |
| CCCCCN[C@@H](CCC(=O)O)C(=O)Nc1ccc(C#N)cc1 [CH3 (CH2)3 CH2/2/4-CN--C6 H4] | 1500 |  |  |
| CCCCCCN[C@@H](CC(=O)O)C(=O)Nc1ccc(C#N)cc1 [CH3 (CH2)4 CH2/1/4-CN--C6 H4] | 600 |  |  |
| CCCCCCN[C@@H](CCC(=O)O)C(=O)Nc1ccc(C#N)cc1 [CH3 (CH2)4 CH2/2/4-CN--C6 H4] | 5000 |  |  |
| CCCCCCCN[C@@H](CC(=O)O)C(=O)Nc1ccc(C#N)cc1 [CH3 (CH2)5 CH2/1/4-CN--C6 H4] | 2000 |  |  |
| CCCCCCCN[C@@H](CCC(=O)O)C(=O)Nc1ccc(C#N)nc1 [CH3 (CH2)5 CH2/2/2-CN-pyrid-5-yl] | 4000 |  |  |
| CCCCCCCN[C@@H](CCC(=O)O)C(=O)Nc1ccc(C#N)cc1 [CH3 (CH2)5 CH2/2/4-CN--C6 H4] | 7000 |  |  |
| CCCCCCCCN[C@@H](CC(=O)O)C(=O)Nc1ccc(C#N)cc1 [CH3 (CH2)6 CH2/1/4-CN--C6 H4] | 400 |  |  |
| CCCCCCCCN[C@@H](CCC(=O)O)C(=O)Nc1ccc(C#N)cc1 [CH3 (CH2)6 CH2/2/4-CN--C6 H4] | 2000 |  |  |
| CC=CC=CCN[C@@H](CCC(=O)O)C(=O)Nc1ccc(C#N)cc1 [CH3 CH=CHCH=CHCH2/2/4-CN--C6 H4] | 2000 |  |  |
| C[C@H](C(=O)N[C@@H](CCC(=O)O)C(=O)Nc1ccc(C#N)cc1)c1ccccc1 [CH3/H/C6 H5/S/2/CH/CH/CN] |  | 1500 |  |
| C[C@H](C(=O)N[C@@H](CCC(=O)O)C(=O)Nc1ccc(C#N)nc1)c1ccccc1 [CH3/H/C6 H5/S/2/N/CH/CN] |  | 4000 |  |
| CCCO[C@H](C)C(=O)N[C@@H](CCC(=O)O)C(=O)Nc1ccc(C#N)cc1 [CH3/H/CH3 (CH2)2 O/R/2/CH/CH/CN] |  | 400 |  |

| Compound | SP [2] | SP (relative sweetening potency) [3] | further results |
| --- | --- | --- | --- |
| CCCO[C@@H](C)C(=O)N[C@@H](CCC(=O)O)C(=O)Nc1ccc(C#N)cc1 [CH3/H/CH3 (CH2)2 O/S/2/CH/CH/CN] |  | 200 |  |
| CCC[C@@H](C)C(=O)N[C@@H](CCC(=O)O)C(=O)Nc1ccc(C#N)cc1 [CH3/H/CH3 (CH2)2/R/2/CH/CH/CN] |  | 500 |  |
| CCC[C@H](C)C(=O)N[C@@H](CCC(=O)O)C(=O)Nc1ccc(C#N)cc1 [CH3/H/CH3 (CH2)2/S/2/CH/CH/CN] |  | 2800 |  |
| CCCC[C@@H](C)C(=O)N[C@@H](CCC(=O)O)C(=O)Nc1ccc(C#N)cc1 [CH3/H/CH3 (CH2)3/R/2/CH/CH/CN] |  | 3000 |  |
| CCCC[C@@H](C)C(=O)N[C@@H](CCC(=O)O)C(=O)Nc1ccc(C#N)nc1 [CH3/H/CH3 (CH2)3/R/2/N/CH/CN] |  | 2000 |  |
| CCCCC(C)C(=O)N[C@@H](CC(=O)O)C(=O)Nc1ccc(C#N)cc1 (stereo partly shown) [CH3/H/CH3 (CH2)3/RS/1/CH/CH/CN] |  | 1500 |  |
| CCCC[C@H](C)C(=O)N[C@@H](CCC(=O)O)C(=O)Nc1ccc(C(C)=O)cc1 [CH3/H/CH3 (CH2)3/S/2/CH/CH/COCH3] |  | 300 |  |
| CCCC[C@H](C)C(=O)N[C@@H](CCC(=O)O)C(=O)Nc1ccc(C(N)=O)cc1 [CH3/H/CH3 (CH2)3/S/2/CH/CH/CONH2] |  | 700 |  |
| CCCC[C@H](C)C(=O)N[C@@H](CCC(=O)O)C(=O)Nc1cnc(C#N)nc1 [CH3/H/CH3 (CH2)3/S/2/N/N/CN] |  | 10000 |  |
| CCCCCC(C)C(=O)N[C@@H](CCC(=O)O)C(=O)Nc1ccc(C#N)cc1 (stereo partly shown) [CH3/H/CH3 (CH2)4/RS/2/CH/CH/CN] |  | 1000 |  |
| CC(C(=O)N[C@@H](CCC(=O)O)C(=O)Nc1ccc(C#N)cc1)C1CCCCC1 (stereo partly shown) [CH3/H/c-C6 H11/RS/2/CH/CH/CN] |  | 1000 |  |
| N#Cc1ccc(NC(=O)[C@H](CCC(=O)O)NC(=O)C(Cl)c2ccccc2)cc1 (stereo partly shown) [Cl/H/C6 H5/RS/2/CH/CH/CN] |  | 2200 |  |
| CCCC[C@H](C)C(=O)N[C@@H](CCC(=O)O)C(=O)Nc1ccc(C#N)nc1 [Example 1, N-[(S)-2-methylhexanoyl]-alpha-L-glutamyl-5-aminopyridine-2-carbonitrile] |  |  | half-life ([1]; accelerated ageing): about 60 days; stability (in words) ([1]; accelerated ageing): excellent |
| CCCCC(C)(C)C(=O)N[C@@H](CCC(=O)O)C(=O)Nc1ccc(C#N)nc1 [Example 2, N-(2,2-dimethylhexanoyl)-alpha-L-glutamyl-5-aminopyridine-2-carbonitrile] |  |  | stability (in words) ([1]; accelerated ageing): excellent; half-life [1, 4]: ~70 days |
| C[C@@H](Oc1ccccc1)C(=O)N[C@@H](CCC(=O)O)C(=O)Nc1ccc(C#N)nc1 [Example 3, N-[(R)-2-phenoxypropanoyl]-alpha-L-glutamyl-5-aminopyridine-2-carbonitrile] |  |  | stability (in words) ([1]; accelerated ageing): very high; half-life [1, 4]: ~60 days |
| CCCC[C@H](C)C(=O)N[C@@H](CCC(=O)O)C(=O)Nc1ccc(C#N)cc1 [Example 4, N-[(S)-2-methylhexanoyl]-alpha-L-glutamyl-4-aminophenylcarbonitrile] |  | 9000 | sweetening potency ([3]; by comparison with a 2% solution of sucrose): ~9000 times that of sucrose; stability (in words) ([1]; accelerated ageing): excellent; half-life [1, 4]: > 60 days |
| O=C(O)C[C@H](NC(=O)C(Cl)(Cl)Cl)C(=O)Nc1cccnc1 [Y=H, X=CCl3 CO] |  |  | sweetening potency [2, 5]: 1 times that of sucrose |
| O=C(O)C[C@H](NC(=O)C(F)(F)F)C(=O)Nc1cccnc1 [Y=H, X=CF3 CO] |  |  | sweetening potency [2, 5]: 40 times that of sucrose |
| COC(=O)[C@H](Cc1ccccc1)NC(=O)[C@@H](N)CC(=O)O [aspartame, reference compound] (H-Asp-Phe-OMe) |  |  | sweetening potency [2, 5]: 180 times that of sucrose; stability (in words) ([1]; accelerated ageing): relatively low stability; half-life [1, 4]: 1 days |
| N#Cc1ccc(NC(=O)[C@H](CCC(=O)O)NCCCC2CCCCC2)cc1 [c-C6 H11 CH2 CH2 CH2/2/4-CN--C6 H4] | 7000 |  |  |
| N#Cc1ccc(NC(=O)[C@H](CC(=O)O)NCC2CCCCC2)cc1 [c-C6 H11 CH2/1/4-CN--C6 H4] | 200 |  |  |
| CC(N[C@@H](CC(=O)O)C(=O)Nc1ccc(C#N)cc1)C1CCCCC1 (stereo partly shown) [c-C6 H11 CH(CH3)/1/4-CN--C6 H4] | 200 |  |  |
| N#Cc1ccc(NC(=O)[C@H](CC(=O)O)NC(=O)C(F)(F)F)cc1 [compound (1)] |  |  | sweetening potency [2, 5]: 3000 times that of sucrose; sweetening potency ([2]; prior art, by comparison with a 2% solution of sucrose): 3000 times that of sucrose; half-life [1, 6]: ~0.625 days |
| N#Cc1ccc(NC(=O)[C@H](CC(=O)O)NC=O)cc1 [compound (2), reference compound] |  |  | sweetening potency [2, 5]: 40 times that of sucrose; half-life [1, 6]: ~0.833 days |
